Experimental data from US6610684B2, “Fused azepinone cyclin dependent kinase inhibitors” (The United States of America as represented by the …, priority 1998, dated 2003).
Read-outs that look alike come from different tables or passages of the source.

Experiments:
[1] = Plasma pharmacokinetics after single i.v. dose; assay type: in vivo, Sprague Dawley rats; settings: Sprague-Dawley, iv, rat

Row | SMILES | melting point | further results
1 | S=C1Cc2c([nH]c3ccc(Br)cc23)-c2ccccc2N1 [6 = S, 9-Br, 9-bromo-7,12-dihydro-indolo[3,2-d][1]benzazepine-6(5H) -thione] | > 330 °C | –
2 | COc1cc2c(cc1OC)-c1[nH]c3ccc([N+](=O)[O-])cc3c1CC(=O)N2 [2,3-dimethoxy, 9-nitro, 2,3-dimethoxy-9-nitro-7,12-dihydro-indolo[3,2-d][1]benzazepin-6(5H)-one] | > 330 °C | –
3 | COOC/C=C/c1ccc2c(c1)-c1[nH]c3ccc(C(F)(F)F)cc3c1CC(=O)N2 [3-(6-oxo-9-trifluoromethyl-5,6,7,12-tetrahydro-indolo[3,2d][1]benzazepin-2-yl)-acrylic acid methyl ester] | > 330 °C | –
4 | O=C1Cc2c([nH]c3ccc([N+](=O)[O-])cc23)-c2ccccc2N1 [Example 9-nitro, 9-nitro-7,12-dihydro-indolo[3,2-d][1]benzazepin-6(5H)-one] | – | clearance ([1]; single i.v. 5 mg/kg in DMSO): 16 mL/min/kg; half-life ([1]; single i.v. 5 mg/kg in DMSO, read-out: half life in the plasma): 46 min; clearance ([1]; single i.v. 10 mg/kg in DMSO): 14 mL/min/kg; half-life ([1]; single i.v. 10 mg/kg in DMSO, read-out: half life in plasma): 66 min
5 | O=C1Cc2c([nH]c3ccc(C(F)(F)F)cc23)-c2cc(C#CC3(O)CCCCC3)ccc2N1 [2-[2-(1-hydroxycyclohexyl)-ethinyl]-9-trifluoromethyl-7,12-dihydro-indolo[3,2-d][1]-benzazepin-6(5H)-one] | > 330 °C | –
6 | COc1cc2c(cc1OC)-c1[nH]c3ccc(C#N)cc3c1CC(=O)N2 [2,3-dimethoxy, 9-cyano, 2,3-dimethoxy-6-oxo-5,6,7,12-tetrahydro-indolo[3,2-d][1]benzazepine-9-carbonitrile] | > 330 °C | –
7 | O=C1Cc2c([nH]c3ccc(Br)cc23)-c2cc(C[C@@H]3CO3)ccc2N1 [Example 34] | 308 to 310 °C (dec.) | –

Now from value to compound, other results behind:

Row | melting point | SMILES | further results
8 | > 330 °C | O=C1Cc2c([nH]c3ccccc23)-c2cc(Br)ccc2N1 [Example 2-Br, 2-bromo-7,12-dihydro-indolo[3,2-d][1]benzazepin-6(5H)-one] | –
9 | > 330 °C | COc1ccc2[nH]c3c(c2c1)CC(=O)Nc1ccccc1-3 [Example 9-OCH3, 7,12-dihydro-9-methoxy-indolo[3,2-d][1]benzazepin-6(5H)-one] | –
10 | > 330 °C | O=C1Cc2c([nH]c3ccc([N+](=O)[O-])cc23)-c2cc(Br)ccc2N1 [2-Br,9-nitro, 2-bromo-9-nitro-7,12-dihydro-indolo[3,2-d][1]benzazepin-6(5H)-one] | –
